Tested on: CaSki (HPV16-positive) cancer cells
Experiment: Cell proliferation, cell counting kit-8 (CCK8) assay, CaSki
Format: cell-based, human
Details: DMSO 10.38±0.90 folds
Description: FIGS. 3A-3B HBX 19818 inhibited proliferation of CaSki cells, but not SCC25 cells. The growth curves showing the cell proliferation of (FIG. 3A) CaSki (HPV16-positive) and (FIG. 3B) SCC25 (HPV-negative) cancer cells in the presence or absence of HBX 19818. Cell proliferation of CaSki was assessed using cell counting kit 8 (CCK8) assay. Cells were seeded into 96-well plates and incubated with either DMSO (vehicle control) or HBX 19818 at 3 μM or 6 μM for different days as indicated. Optical density (OD) value at 450 nm indicating relative proliferation was measured daily (n=3). Error bars indicate standard error of the mean (SEM).
We assessed the ability of CaSki (HPV16 positive cells) and SCC25, which are HPV-null cells, to proliferate using a cell counting kit-8 (CCK8) assay. This assay measures the ability of viable cells to metabolize soluble tetrazolium salt (WST-8) to orange formazan, in which the latter can be measured at optical density (OD) of […]. A day prior to drug treatment, CaSki and SCC25 were seeded into each well of 96-well plates at a density of 2000 cells/well in 100 μL of DMEM containing 10% FBS. The cells were treated with either DMSO (vehicle control) or HBX 19818 at 3 μM and 6 μM for 24, 72, and 96 hrs. […] The OD value of the medium at 450 nm was measured using LEDETECT 96 microplate reader (Labexim Products).

HBX 19818
Cell proliferation ability (relative OD 450 nm) (3 μM): 7.82±1.14 folds | Cell proliferation ability (relative OD 450 nm) (6 μM): 4.29±0.31 folds

Reference: patent publication US20240009182A1, “REPURPOSED COMPOUND AS THERAPEUTIC FOR HPV-ASSOCIATED CANCERS” (The Chinese University of Hong Kong, priority 2022, published 2024)
